Assay results as given in US20060127996A1, “Method of extraction of isothiocyanates into oil from glucosinolate-containing plants and method of producing products with oil containing isothiocyanates extracted from glucosinolate-containing plants” (Johns Hopkins University, priority 2004, published 2006).

Assays:
[1] = Method: The remainder of the hydrolyzed seed mash (100 g-0.79 g) was partitioned into a total of 400 ml EtOAc, by vigorous stirring and shaking. The mixture was then allowed to settle in a large graduate cylinder, the upper 100 ml was removed and evaporated under vacuum. […] This oil was then vortexed (1 g volume per 100 ml of water), then allowed to re-equilibrate into two phases, filtered, and the aqueous phase used for HPLC determination of sulforaphane content as described above.
Remark: listed apart in the source

## C[S+]([O-])CCCCN=C=S (centres unmarked) [sulforaphane, 4-methylsulfinylbutyl isothiocyanate]
[1]; broccoli seed oil
  solubility in oil: oil soluble
[1]; hexane
  solubility in hexane: not soluble
[1]; water, back-extraction of the oil
  solubility in water: reasonable solubility
Pure sulforaphane spiked into ethyl acetate/water
  partition in biphasic mixture of ethyl acetate and water: partitions to the organic fraction
Pure sulforaphane spiked into hexane/water
  partition in biphasic mixture of hexane and water: partitions to the aqueous fraction
